Test results from article PMC4170623, “A novel class I HDAC inhibitor, MPT0G030, induces cell apoptosis and differentiation in human colorectal cancer cells via HDAC1/PKCδ and E-cadherin” (Oncotarget, 2014).
Read-outs that look alike come from different tables or passages of the source. Each block holds one compound with its values, some of them ahead of it.

Key:
HDAC5 = HDAC5 (Homo sapiens, UniProt Q9UQL6); assay: Fluorometric HDAC activity assay, recombinant isoform
Protocol: (§2) Two different types of in vitro HDAC activity assays were used (with or without cells). Test compounds were incubated with individual recombinant HDAC isoforms (HDAC 1-9) and the assay was performed according to the manufacturer's protocol (BPS Biosciences, USA).

HCT116 = assay: Sulforhodamine B (SRB) growth inhibition assay; format: cell-based, human; conditions: HCT116, ± SE
Protocol: (§1) Cells were inoculated into 96-well plates in growth medium. After 24 h, cells were fixed with 10% trichloroacetic acid (TCA), to represent a measurement of the cell population at the time of drug addition (Tz). After incubation with vehicle (0.1% DMSO) or different concentrations of compound for 48 h (Tt), cells were fixed with 10% TCA and stained with 0.4% SRB. After staining, unbound SRB was removed by 1% acetic acid. Bound SRB was solubilized with 10 mM trizma base and the absorbance was measured at 515 nm. Percentage of growth inhibition was calculated as: 100−[(Tt-Tz)/(C-Tz)] ×100. Tt represents absorbance of compound-treated group, and C means absorbance of vehicle-treated group.

A549 = assay: Sulforhodamine B (SRB) growth inhibition assay; format: cell-based, human; conditions: A549, ± SE
Protocol: as §1

HT-29 cells [1] = assay: Sulforhodamine B (SRB) growth inhibition assay; format: cell-based, human
Protocol: as §1

Hep3B = assay: Sulforhodamine B (SRB) growth inhibition assay; format: cell-based, human; conditions: ± SE
Protocol: as §1

HDAC9 = HDAC9 (Homo sapiens, UniProt Q9UKV0); assay: Fluorometric HDAC activity assay, recombinant isoform
HDAC9, sequence (Q9UKV0 whole entry, canonical isoform): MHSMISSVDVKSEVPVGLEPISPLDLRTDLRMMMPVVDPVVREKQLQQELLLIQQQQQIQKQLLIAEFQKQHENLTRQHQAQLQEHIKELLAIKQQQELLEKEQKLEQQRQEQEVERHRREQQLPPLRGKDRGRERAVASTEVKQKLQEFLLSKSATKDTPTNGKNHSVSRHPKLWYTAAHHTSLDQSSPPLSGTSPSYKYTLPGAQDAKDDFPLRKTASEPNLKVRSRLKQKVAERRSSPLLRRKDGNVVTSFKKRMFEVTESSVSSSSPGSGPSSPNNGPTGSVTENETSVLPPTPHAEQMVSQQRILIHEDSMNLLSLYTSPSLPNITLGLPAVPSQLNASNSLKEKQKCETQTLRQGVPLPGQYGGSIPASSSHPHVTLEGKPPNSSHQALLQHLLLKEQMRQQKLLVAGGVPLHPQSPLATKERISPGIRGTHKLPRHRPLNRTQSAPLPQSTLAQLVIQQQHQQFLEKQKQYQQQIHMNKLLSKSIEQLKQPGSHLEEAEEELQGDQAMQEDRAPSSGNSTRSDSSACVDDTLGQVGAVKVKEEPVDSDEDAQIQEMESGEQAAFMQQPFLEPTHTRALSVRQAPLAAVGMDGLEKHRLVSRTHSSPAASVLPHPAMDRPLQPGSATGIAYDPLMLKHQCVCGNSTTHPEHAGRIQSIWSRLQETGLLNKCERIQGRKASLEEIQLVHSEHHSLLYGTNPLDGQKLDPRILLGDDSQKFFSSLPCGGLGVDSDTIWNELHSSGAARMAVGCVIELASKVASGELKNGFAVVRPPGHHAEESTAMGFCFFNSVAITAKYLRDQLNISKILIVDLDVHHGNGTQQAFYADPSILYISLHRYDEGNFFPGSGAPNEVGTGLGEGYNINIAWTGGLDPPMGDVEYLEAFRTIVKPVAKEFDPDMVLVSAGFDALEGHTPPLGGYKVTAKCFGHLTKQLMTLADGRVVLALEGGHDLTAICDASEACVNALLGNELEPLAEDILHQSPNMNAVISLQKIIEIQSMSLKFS
Protocol: as §2

HDAC4 = HDAC4 (Homo sapiens, UniProt P56524); assay: as above
HDAC4, sequence (P56524 whole entry): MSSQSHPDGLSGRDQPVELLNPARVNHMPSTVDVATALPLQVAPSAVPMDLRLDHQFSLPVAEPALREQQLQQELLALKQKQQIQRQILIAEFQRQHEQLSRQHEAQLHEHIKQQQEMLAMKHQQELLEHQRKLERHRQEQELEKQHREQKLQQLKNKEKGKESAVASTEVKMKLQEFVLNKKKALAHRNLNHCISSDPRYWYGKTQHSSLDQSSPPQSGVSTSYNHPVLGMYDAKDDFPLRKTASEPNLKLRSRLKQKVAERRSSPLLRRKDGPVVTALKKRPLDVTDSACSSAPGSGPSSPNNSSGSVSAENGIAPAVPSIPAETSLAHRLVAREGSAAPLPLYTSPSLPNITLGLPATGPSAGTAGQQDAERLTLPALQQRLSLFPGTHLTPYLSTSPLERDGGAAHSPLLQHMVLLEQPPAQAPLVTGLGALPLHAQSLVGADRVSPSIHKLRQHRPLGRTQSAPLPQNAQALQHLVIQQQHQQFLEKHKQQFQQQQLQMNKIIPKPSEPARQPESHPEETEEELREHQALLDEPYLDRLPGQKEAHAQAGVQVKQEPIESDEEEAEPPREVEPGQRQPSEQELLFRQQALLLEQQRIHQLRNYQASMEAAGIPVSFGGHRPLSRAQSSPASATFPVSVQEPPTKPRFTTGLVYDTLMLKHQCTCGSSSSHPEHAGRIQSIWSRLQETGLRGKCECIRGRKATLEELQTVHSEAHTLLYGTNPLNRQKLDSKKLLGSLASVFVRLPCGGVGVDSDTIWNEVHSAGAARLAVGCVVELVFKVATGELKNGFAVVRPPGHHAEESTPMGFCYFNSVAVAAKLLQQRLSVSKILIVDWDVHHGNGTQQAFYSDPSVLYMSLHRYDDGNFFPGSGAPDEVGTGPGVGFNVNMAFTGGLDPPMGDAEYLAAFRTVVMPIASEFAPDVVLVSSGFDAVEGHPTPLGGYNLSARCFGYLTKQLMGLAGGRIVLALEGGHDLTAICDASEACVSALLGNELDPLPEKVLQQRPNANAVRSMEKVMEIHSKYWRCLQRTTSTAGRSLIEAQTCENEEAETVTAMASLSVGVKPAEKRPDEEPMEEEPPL
Protocol: as §2

HDAC6 = biological target: T1, HDAC6 (Homo sapiens, UniProt Q9UBN7); assay: as above
T1 sequence (Q9UBN7 1-1215): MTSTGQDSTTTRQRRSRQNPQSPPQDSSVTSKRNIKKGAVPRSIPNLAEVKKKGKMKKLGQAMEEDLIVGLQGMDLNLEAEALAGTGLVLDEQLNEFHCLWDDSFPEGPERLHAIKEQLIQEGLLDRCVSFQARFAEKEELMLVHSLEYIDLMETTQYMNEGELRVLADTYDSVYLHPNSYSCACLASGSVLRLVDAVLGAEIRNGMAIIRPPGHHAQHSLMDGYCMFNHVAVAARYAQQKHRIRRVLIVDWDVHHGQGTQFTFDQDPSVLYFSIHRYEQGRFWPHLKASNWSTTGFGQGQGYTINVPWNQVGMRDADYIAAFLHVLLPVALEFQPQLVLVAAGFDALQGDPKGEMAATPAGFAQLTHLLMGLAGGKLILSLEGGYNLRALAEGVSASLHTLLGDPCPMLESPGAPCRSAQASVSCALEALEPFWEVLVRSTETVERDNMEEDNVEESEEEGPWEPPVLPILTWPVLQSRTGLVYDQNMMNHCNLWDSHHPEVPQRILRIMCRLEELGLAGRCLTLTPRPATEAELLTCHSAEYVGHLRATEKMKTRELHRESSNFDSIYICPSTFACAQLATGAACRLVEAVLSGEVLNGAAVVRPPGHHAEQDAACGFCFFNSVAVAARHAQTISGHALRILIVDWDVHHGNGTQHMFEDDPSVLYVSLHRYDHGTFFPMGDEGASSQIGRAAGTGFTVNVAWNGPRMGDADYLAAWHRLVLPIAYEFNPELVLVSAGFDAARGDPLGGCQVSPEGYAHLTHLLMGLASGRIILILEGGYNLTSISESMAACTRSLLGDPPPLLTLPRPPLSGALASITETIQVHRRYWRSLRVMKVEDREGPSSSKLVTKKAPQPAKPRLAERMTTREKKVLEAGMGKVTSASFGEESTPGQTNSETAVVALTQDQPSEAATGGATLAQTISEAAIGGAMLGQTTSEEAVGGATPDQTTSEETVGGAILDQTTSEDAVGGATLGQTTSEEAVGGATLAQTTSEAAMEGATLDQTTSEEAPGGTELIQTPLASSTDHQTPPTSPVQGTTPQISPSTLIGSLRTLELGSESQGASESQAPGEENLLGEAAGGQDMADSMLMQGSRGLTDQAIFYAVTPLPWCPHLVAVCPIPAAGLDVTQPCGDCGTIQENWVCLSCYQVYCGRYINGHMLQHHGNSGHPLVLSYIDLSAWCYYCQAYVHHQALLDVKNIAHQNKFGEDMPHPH
Protocol: as §2

HUVEC cells = assay: MTT cell viability assay in normal cells; format: cell-based, human; conditions: 24 h
Protocol: Then, cell viability was measured by the mitochondrial MTT reduction activity assay.

HDAC1 = HDAC1 (Homo sapiens, UniProt Q13547); assay: Fluorometric HDAC activity assay, recombinant isoform
HDAC1, sequence (Q13547 whole entry, canonical isoform): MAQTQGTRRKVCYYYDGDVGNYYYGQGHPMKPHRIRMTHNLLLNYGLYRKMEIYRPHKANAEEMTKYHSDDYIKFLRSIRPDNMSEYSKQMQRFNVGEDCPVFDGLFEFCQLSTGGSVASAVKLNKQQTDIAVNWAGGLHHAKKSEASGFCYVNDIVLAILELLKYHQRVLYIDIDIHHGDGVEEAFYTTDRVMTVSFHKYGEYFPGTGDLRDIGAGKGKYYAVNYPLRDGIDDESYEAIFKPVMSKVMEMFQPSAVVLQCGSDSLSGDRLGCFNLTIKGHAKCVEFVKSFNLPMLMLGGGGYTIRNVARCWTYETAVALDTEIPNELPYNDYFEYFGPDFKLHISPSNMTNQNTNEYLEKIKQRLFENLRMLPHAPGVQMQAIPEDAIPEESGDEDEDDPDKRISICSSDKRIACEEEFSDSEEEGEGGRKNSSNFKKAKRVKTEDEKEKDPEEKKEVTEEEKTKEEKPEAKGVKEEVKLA
Protocol: as §2

HDAC8 = biological target: T2, HDAC8 (Homo sapiens, UniProt Q9BY41); assay: as above
T2 sequence (Q9BY41 1-377): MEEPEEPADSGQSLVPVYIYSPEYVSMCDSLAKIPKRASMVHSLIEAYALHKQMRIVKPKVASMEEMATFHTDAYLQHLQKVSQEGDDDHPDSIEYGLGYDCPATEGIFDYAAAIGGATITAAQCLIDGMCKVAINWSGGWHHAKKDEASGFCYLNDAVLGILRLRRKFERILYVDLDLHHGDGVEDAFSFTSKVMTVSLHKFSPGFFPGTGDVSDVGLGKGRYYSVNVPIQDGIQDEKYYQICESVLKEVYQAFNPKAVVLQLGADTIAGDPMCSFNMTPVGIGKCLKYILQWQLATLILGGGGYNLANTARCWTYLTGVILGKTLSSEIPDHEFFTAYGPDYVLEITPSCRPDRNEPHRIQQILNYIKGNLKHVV
Protocol: as §2

HT-29 tumor xenograft = HT-29 tumor xenograft model; format: in vivo, athymic nude mice; conditions: 100 or 200 mg/kg qd by gavage, 18 days
Protocol: Tumor volumes were calculated using caliper measurements twice per week using the formula volume (mm^3) = (length × width^2)/2. Body weights were measured daily during the first week and twice per week thereafter. […] The protocols of the in vivo study were approved by the Animal Care and User Committee at National Taiwan University.

HT-29 cells [2] = assay: MTT cell viability assay; format: cell-based; conditions: Homo sapiens, 24 h, read-out: IC50 (cell death, MTT)
Protocol: Cells were seeded in 96-well plates in growth medium overnight. Cells were treated with vehicle (0.1% DMSO) or different concentrations of compound for 24 h, then incubated with MTT reagent at 37°C for 1 h. After incubation, the insoluble formazan produced in living cells. The formazan crystals were dissolved with DMSO and the absorbance was measured at 550 nm.

HDAC7 = biological target: T3, HDAC7 (Homo sapiens, UniProt Q8WUI4); assay: Fluorometric HDAC activity assay, recombinant isoform
T3 sequence (Q8WUI4 1-952): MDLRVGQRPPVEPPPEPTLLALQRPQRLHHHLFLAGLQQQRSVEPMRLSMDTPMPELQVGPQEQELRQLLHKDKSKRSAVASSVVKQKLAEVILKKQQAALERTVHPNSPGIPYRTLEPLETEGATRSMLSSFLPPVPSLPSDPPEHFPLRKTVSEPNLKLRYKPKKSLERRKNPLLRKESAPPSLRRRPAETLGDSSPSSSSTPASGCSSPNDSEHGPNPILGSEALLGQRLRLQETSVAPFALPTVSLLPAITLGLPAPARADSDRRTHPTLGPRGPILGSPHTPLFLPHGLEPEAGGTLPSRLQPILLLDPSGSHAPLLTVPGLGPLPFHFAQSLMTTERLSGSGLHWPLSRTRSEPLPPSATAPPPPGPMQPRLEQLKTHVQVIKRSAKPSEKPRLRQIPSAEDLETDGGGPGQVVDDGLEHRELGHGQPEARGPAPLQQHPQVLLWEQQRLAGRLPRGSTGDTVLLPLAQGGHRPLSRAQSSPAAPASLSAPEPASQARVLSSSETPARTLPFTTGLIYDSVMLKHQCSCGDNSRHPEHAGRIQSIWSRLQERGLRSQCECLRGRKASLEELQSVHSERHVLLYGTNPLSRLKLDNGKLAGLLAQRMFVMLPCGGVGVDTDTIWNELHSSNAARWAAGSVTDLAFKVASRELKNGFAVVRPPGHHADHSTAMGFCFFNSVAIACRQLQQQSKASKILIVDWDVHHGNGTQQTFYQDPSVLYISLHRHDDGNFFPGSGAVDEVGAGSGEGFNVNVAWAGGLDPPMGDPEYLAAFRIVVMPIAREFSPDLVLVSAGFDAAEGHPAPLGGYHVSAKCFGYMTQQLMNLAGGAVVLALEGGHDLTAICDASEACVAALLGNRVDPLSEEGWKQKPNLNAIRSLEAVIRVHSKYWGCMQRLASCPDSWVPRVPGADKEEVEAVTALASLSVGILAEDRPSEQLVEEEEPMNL
Protocol: as §2

HDAC2 = HDAC2 (Homo sapiens, UniProt Q92769); assay: as above
HDAC2, sequence (Q92769 whole entry): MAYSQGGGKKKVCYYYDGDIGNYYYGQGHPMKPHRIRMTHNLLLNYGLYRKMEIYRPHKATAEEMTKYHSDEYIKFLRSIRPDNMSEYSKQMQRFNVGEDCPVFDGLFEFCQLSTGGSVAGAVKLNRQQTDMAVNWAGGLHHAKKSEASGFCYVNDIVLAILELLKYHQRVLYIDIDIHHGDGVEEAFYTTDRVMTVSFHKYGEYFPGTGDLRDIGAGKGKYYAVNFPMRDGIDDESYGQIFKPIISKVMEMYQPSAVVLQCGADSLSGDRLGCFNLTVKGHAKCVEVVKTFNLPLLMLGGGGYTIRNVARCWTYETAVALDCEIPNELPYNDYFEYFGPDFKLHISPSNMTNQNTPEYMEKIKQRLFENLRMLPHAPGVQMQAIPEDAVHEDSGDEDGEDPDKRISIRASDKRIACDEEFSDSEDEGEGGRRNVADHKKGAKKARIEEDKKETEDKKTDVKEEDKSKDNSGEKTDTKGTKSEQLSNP
Protocol: as §2

[3] = test system: total HDACs in HT-29 cells; assay: Fluorometric HDAC activity assay, total HDACs in cell lysates; conditions: read-out: IC50 inhibition of total HDACs, HT-29 cells treated 24 h
Protocol: as §2

HT-29 cells [4] = assay: Cell death detection ELISA (DNA fragmentation); format: cell-based, human; conditions: 24 h, compared with SAHA
Protocol: Cell Death Detection ELISA Kit (Roche Diagnostics, Switzerland) was used to analyze drug-induced apoptosis. […] Adherent cells were collected and the assay was performed according to the manufacturer's protocol.

PC3 = assay: Sulforhodamine B (SRB) growth inhibition assay; format: cell-based; conditions: Homo sapiens, PC-3; PC3, ± SE
Protocol: as §1, with “Bound SRB was solubilized with 10 mM trizma base and the absorbance was measured at 515 nm.” left out

HT-29 cells [5] = test system: HT-29 cells; design: method as in PMID 10200307; conditions: cited from earlier work

HDAC5, sequence (Q9UQL6 whole entry, canonical isoform): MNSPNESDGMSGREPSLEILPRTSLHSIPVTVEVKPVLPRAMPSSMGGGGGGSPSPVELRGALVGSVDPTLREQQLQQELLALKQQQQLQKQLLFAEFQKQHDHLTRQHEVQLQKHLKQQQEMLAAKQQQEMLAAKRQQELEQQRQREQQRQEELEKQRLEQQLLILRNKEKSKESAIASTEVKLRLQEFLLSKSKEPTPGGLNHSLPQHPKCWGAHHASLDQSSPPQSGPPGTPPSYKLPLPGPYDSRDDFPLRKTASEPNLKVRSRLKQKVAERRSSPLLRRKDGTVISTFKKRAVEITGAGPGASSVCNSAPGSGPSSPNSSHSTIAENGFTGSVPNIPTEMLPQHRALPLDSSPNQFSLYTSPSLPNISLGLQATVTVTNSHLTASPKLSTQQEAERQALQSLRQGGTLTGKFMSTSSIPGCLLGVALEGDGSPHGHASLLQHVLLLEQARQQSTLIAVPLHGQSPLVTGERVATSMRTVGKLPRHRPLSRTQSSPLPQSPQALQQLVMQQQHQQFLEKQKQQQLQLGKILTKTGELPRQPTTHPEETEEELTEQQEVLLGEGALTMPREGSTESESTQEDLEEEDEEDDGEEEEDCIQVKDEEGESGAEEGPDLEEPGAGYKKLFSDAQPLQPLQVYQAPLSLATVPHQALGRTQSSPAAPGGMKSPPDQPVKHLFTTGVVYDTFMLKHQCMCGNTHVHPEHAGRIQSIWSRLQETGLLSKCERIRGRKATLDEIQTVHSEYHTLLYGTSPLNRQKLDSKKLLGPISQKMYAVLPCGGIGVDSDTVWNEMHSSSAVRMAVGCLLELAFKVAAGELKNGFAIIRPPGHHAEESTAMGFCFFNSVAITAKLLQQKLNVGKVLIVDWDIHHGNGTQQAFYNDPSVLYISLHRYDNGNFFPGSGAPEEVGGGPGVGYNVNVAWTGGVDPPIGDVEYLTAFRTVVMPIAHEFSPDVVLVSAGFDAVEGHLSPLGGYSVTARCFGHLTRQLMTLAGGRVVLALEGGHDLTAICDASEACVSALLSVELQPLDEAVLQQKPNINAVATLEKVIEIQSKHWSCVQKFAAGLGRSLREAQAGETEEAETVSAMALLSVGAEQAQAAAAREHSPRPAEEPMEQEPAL

- IC50 (HDAC5): > 5000 nM
- Ratio: fold x IC50 relative to HDAC1 isoform (HDAC5; HDAC5): >60
- GI50 (HCT116; Homo sapiens, HCT-116): 110 ± 20 nM
- GI50 (A549; Homo sapiens): 180 ± 10 nM
- GI50 (HT-29 cells [1]; Homo sapiens, HT-29, 48 h): 145 ± 10 nM
- GI50 (Hep3B; Homo sapiens): 140 ± 10 nM
- IC50 (HDAC9): > 10000 nM
- Ratio: fold x IC50 relative to HDAC1 isoform (HDAC9; HDAC9): >130
- IC50 (HDAC4): > 10000 nM
- IC50 (HDAC6): 4368 ± 42.1 nM
- HDAC6 IC50 of MPT0G030 as fold x IC50 of SAHA (HDAC6; HDAC6): > 55 fold
- Ratio: fold x IC50 relative to HDAC1 isoform (HDAC6; HDAC6): 58.19
- IC50 (HDAC1): 75.1 ± 4.65 nM
- Ratio: fold x IC50 relative to HDAC1 isoform (HDAC1; HDAC1): 1
- IC50 (HDAC8): 3340 ± 130 nM
- Ratio: fold x IC50 relative to HDAC1 isoform (HDAC8; HDAC8): 44.55
- IC50 (HDAC7): > 10000 nM
- Ratio: fold x IC50 relative to HDAC1 isoform (HDAC7; HDAC7): >130
- IC50 (HDAC2): 242 ± 47.6 nM
- Ratio: fold x IC50 relative to HDAC1 isoform (HDAC2; HDAC2): 3.22
- IC50 [3]: 6450 ± 1390 nM
- GI50 (PC3): 170 ± 10 nM
SMILES: COc1ccc(S(=O)(=O)N2CCc3cc(C=CC(=O)NO)cc(N)c32)cc1 [MPT0G030, 3-[7-amino-1-(4-methoxy-benzenesulfonyl)-2,3-dihydro-1H-indol-5-yl]-N-hydroxy-acrylamide]
- IC50 in normal (HUVEC) cells relative to IC50 in HT-29 cells (HUVEC cells): about thirty times higher
- Body weight (HT-29 tumor xenograft): not affected
- IC50 (HT-29 cells [2]): 985 ± 60 nM
- Induction of cell apoptosis (cytoplasmic histone-associated DNA fragments) (HT-29 cells [4]): more effective on inducing cell apoptosis

SMILES: O=C(CCCCCCC(=O)Nc1ccccc1)NO [SAHA, suberanilohydroxamic acid, reference compound]
- GI50 (HCT116): 440 ± 30 nM
- GI50 (A549): 2620 ± 1370 nM
- GI50 (HT-29 cells [1]; 48 h): 920 ± 50 nM
- GI50 (Hep3B): 950 ± 40 nM
- IC50 [3]: 29600 ± 2620 nM

SMILES: Nc1ccccc1NC(=O)c1ccc(CNC(=O)OCc2cccnc2)cc1 [entinostat]
- GI50 (HT-29 cells [5]): 1290 nM
